Source: patent publication US9833497B2, “Human originated EGF domain proteins and use of the same” (CHENGDU SOURCEBIO LIMITED-LIABILITY COMPANY, priority 2013, dated 2017)

Assays:
Format in all cases: cell-based
[1] = system: Klebsiella pneumonia; test: MIC against Gram-negative bacteria: Klebsiella pneumonia; settings: 5×10^5 CFU/mL; for MIC against K. pneumonia: Klebsiella pneumonia
Summary of the method: (§1)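 LB broth cultures at McFarland 0.5, spun down, resuspended, diluted to 5×10^5 CFU/mL final. Two-fold serial dilutions of purified human EGF domain proteins, triplicate. 37° C, 175 rpm shaking. Endpoint: no visible growth.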

[2] = system: E. coli BL21; test: MIC against Gram-negative bacteria: E. coli BL21; settings: 5×10^5 CFU/mL
Summary of the method: as §1

[3] = system: Proteus vulgaris; test: MIC against Gram-negative bacteria: Proteus vulgaris; settings: 5×10^5 CFU/mL; for MIC against P. vulgaris: Proteus vulgaris
Summary of the method: as §1

[4] = system: Pseudomonas aeruginosa; test: MIC against Gram-negative bacteria: Pseudomonas aeruginosa; settings: 5×10^5 CFU/mL; for MIC against P. aeruginosa: Pseudomonas aeruginosa
Summary of the method: as §1

[5] = system: Serratia marcescens; test: MIC against Gram-negative bacteria: Serratia marcescens; settings: 5×10^5 CFU/mL; for MIC against S. marcescens: Serratia marcescens
Summary of the method: as §1

[6] = system: Proteus mirabilis; test: MIC against Gram-negative bacteria: Proteus mirabilis; settings: 5×10^5 CFU/mL; for MIC against P. mirabilis: Proteus mirabilis
Summary of the method: as §1

[7] = system: Citrobacter diversus; test: MIC against Gram-negative bacteria: Citrobacter diversus; settings: 5×10^5 CFU/mL; for MIC against C. diversus: Citrobacter diversus
Summary of the method: as §1

[8] = system: Enterobacter cloacae; test: MIC against Gram-negative bacteria: Enterobacter cloacae; settings: 5×10^5 CFU/mL; for MIC against E. cloacae: Enterobacter cloacae
Summary of the method: as §1

[9] = system: E. coli DH5α; test: Antibacterial activity: MIC and growth curve against E. coli DH5α in 96-well plate; settings: minimal inhibitory concentration against E. coli DH5α; 96-well plate, 5×10^5 CFU/mL, 37° C., judged after 8 h
Summary of the method: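 MIC taken as lowest protein level with no bacterial growth, tracked by A600 every 30 min during 37 °C, 175 rpm culture. Two-fold protein series 50-12.5 μg/mL final, triplicate wells, against 5×10^5 CFU/mL of LB-washed mid-log cells.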

[10] = system: Aeromonas hydrophila; test: MIC against Gram-negative bacteria: Aeromonas hydrophila; settings: 5×10^5 CFU/mL; for MIC against A. hydrophila: Aeromonas hydrophila
Summary of the method: as §1

[11] = system: Moraxella catarrhalis; test: MIC against Gram-negative bacteria: Moraxella catarrhalis; settings: 5×10^5 CFU/mL; for MIC against M. catarrhalis: Moraxella catarrhalis
Summary of the method: as §1

[12] = 10 h cultivation at 37° C., two-fold serial dilution
[13] = E. coli BL21, 10 h cultivation at 37° C.

**Q.** Which “MIC K. pneumonia” value ([1]; 96-well plate, 37° C., 10 h) does the source give for “PRT621 (CQCNNNVDPSASGNCDRLTGRCLKCIHNTAGIYCDQCKAGYFGDPLAPNPADKCRA; listed as Homo sapiens)” here?
**A.** 25 µg/mL

**Q.** And the “MIC E. coli BL21” value ([2]; 96-well plate, 37° C., 10 h)?
**A.** 25 µg/mL

**Q.** And the “MIC P. vulgaris” value ([3]; 96-well plate, 37° C., 10 h)?
**A.** 25 µg/mL

**Q.** And the “MIC P. aeruginosa” value ([4]; 96-well plate, 37° C., 10 h)?
**A.** 50 µg/mL

**Q.** And the “MIC S. marcescens” value ([5]; 96-well plate, 37° C., 10 h)?
**A.** 50 µg/mL

**Q.** What about the “MIC P. mirabilis” value ([6]; 96-well plate, 37° C., 10 h) of the same substance?
**A.** 50 µg/mL

**Q.** What about the “MIC C. diversus” value ([7]; 96-well plate, 37° C., 10 h) of the same substance?
**A.** 50 µg/mL

**Q.** And the “MIC E. cloacae” value ([8]; 96-well plate, 37° C., 10 h)?
**A.** 50 µg/mL

**Q.** What about the MIC [9] of the same substance?
**A.** 50 µg/mL

**Q.** What about the “MIC A. hydrophila” value ([10]; 96-well plate, 37° C., 10 h) of the same substance?
**A.** 25 µg/mL

**Q.** And the “MIC M. catarrhalis” value ([11]; 96-well plate, 37° C., 10 h)?
**A.** 25 µg/mL

**Q.** Which results are given for “PRT1128 (VANSCTPNPCENDGVCTDIGGDFRCRCPAGFIDKTCS; listed as Homo sapiens)”?
**A.** MIC K. pneumonia [1, 12]: 50 µg/mL; MIC E. coli BL21 [2, 12]: 50 µg/mL; MIC P. vulgaris [3, 12]: 50 µg/mL; MIC P. aeruginosa [4, 12]: 12.5 µg/mL; MIC S. marcescens [5, 12]: 12.5 µg/mL; MIC P. mirabilis [6, 12]: 12.5 µg/mL; MIC C. diversus [7, 12]: 12.5 µg/mL; MIC E. cloacae [8, 12]: 12.5 µg/mL; MIC [9]: 12.5 µg/mL; MIC A. hydrophila [10, 12]: 50 µg/mL; MIC M. catarrhalis [11, 12]: 50 µg/mL

**Q.** “PRT653 (DVDECEDPQSSCLGGECKNTVGSYQCLCPQGFQLANGTVCE; listed as Homo sapiens)” was tested. Which “MIC K. pneumonia” value ([1]; 96-well plate, 37° C., 10 h) did it give?
**A.** 50 µg/mL

**Q.** And the “MIC E. coli BL21” value ([2]; 96-well plate, 37° C., 10 h)?
**A.** 12.5 µg/mL

**Q.** And the “MIC P. vulgaris” value ([3]; 96-well plate, 37° C., 10 h)?
**A.** 50 µg/mL

**Q.** And the “MIC P. aeruginosa” value ([4]; 96-well plate, 37° C., 10 h)?
**A.** 25 µg/mL

**Q.** And the “MIC S. marcescens” value ([5]; 96-well plate, 37° C., 10 h)?
**A.** 25 µg/mL

**Q.** And the “MIC P. mirabilis” value ([6]; 96-well plate, 37° C., 10 h)?
**A.** 12.5 µg/mL

**Q.** What about the “MIC C. diversus” value ([7]; 96-well plate, 37° C., 10 h) of the same substance?
**A.** 50 µg/mL

**Q.** And the “MIC E. cloacae” value ([8]; 96-well plate, 37° C., 10 h)?
**A.** 25 µg/mL

**Q.** What about the MIC [9] of the same substance?
**A.** 25 µg/mL

**Q.** And the “MIC A. hydrophila” value ([10]; 96-well plate, 37° C., 10 h)?
**A.** 12.5 µg/mL

**Q.** What about the “MIC M. catarrhalis” value ([11]; 96-well plate, 37° C., 10 h) of the same substance?
**A.** 25 µg/mL

**Q.** How did the “MIC against K. pneumonia” value ([1]; 96-well plate, 37° C., 10 h) turn out when “PRT1308 (TSPQCPRKCDPNANCVQDSAGASTCACAAGYSGNGIFCS; listed as Homo sapiens)” was run?
**A.** 12.5 µg/mL

**Q.** What about the “MIC against E. coli BL21” value ([2]; E. coli BL21, 96-well plate, 37° C., 10 h) of the same substance?
**A.** 12.5 µg/mL

**Q.** What about the “MIC against P. vulgaris” value ([3]; 96-well plate, 37° C., 10 h) of the same substance?
**A.** 12.5 µg/mL

**Q.** And the “MIC against P. aeruginosa” value ([4]; 96-well plate, 37° C., 10 h)?
**A.** 50 µg/mL

**Q.** What about the “MIC against S. marcescens” value ([5]; 96-well plate, 37° C., 10 h) of the same substance?
**A.** 50 µg/mL

**Q.** And the “MIC against P. mirabilis” value ([6]; 96-well plate, 37° C., 10 h)?
**A.** 25 µg/mL

**Q.** And the “MIC against C. diversus” value ([7]; 96-well plate, 37° C., 10 h)?
**A.** 25 µg/mL

**Q.** And the “MIC against E. cloacae” value ([8]; 96-well plate, 37° C., 10 h)?
**A.** 50 µg/mL

**Q.** And the MIC [9]?
**A.** 50 µg/mL

**Q.** And the “MIC against A. hydrophila” value ([10]; 96-well plate, 37° C., 10 h)?
**A.** 12.5 µg/mL

**Q.** What about the “MIC against M. catarrhalis” value ([11]; 96-well plate, 37° C., 10 h) of the same substance?
**A.** 50 µg/mL

**Q.** With “PRT1344 (DIDECSPLPCLNNGVCKDLVGEFICECPSGYTGQRCE; listed as Homo sapiens)” as the substance, how does the “MIC against K. pneumonia” value ([1]; 10 h cultivation at 37° C.) read?
**A.** 12.5 µg/mL

**Q.** And the “MIC against E. coli BL21” value [2, 13]?
**A.** 50 µg/mL

**Q.** What about the “MIC against P. vulgaris” value ([3]; 10 h cultivation at 37° C.) of the same substance?
**A.** 50 µg/mL

**Q.** What about the “MIC against P. aeruginosa” value ([4]; 10 h cultivation at 37° C.) of the same substance?
**A.** 25 µg/mL

**Q.** What about the “MIC against S. marcescens” value ([5]; 10 h cultivation at 37° C.) of the same substance?
**A.** 25 µg/mL

**Q.** And the “MIC against P. mirabilis” value ([6]; 10 h cultivation at 37° C.)?
**A.** 12.5 µg/mL

**Q.** What about the “MIC against C. diversus” value ([7]; 10 h cultivation at 37° C.) of the same substance?
**A.** 12.5 µg/mL

**Q.** And the “MIC against E. cloacae” value ([8]; 10 h cultivation at 37° C.)?
**A.** 25 µg/mL

**Q.** What about the MIC [9] of the same substance?
**A.** 12.5 µg/mL

**Q.** And the “MIC against A. hydrophila” value ([10]; 10 h cultivation at 37° C.)?
**A.** 50 µg/mL

**Q.** And the “MIC against M. catarrhalis” value ([11]; 10 h cultivation at 37° C.)?
**A.** 50 µg/mL

**Q.** With “PRT800 (GRVCQCQNGASCDHISGKCTCRTGFTGQHCE; listed as Homo sapiens)” as the substance, how does the “MIC (μg/mL) K. pneumonia” value ([1]; K. pneumonia, 10 h cultivation at 37° C.) read?
**A.** 12.5 µg/mL

**Q.** And the “MIC (μg/mL) E. coli BL21” value [2, 13]?
**A.** 50 µg/mL

**Q.** What about the “MIC (μg/mL) P. vulgaris” value ([3]; P. vulgaris, 10 h cultivation at 37° C.) of the same substance?
**A.** 50 µg/mL

**Q.** What about the “MIC (μg/mL) P. aeruginosa” value ([4]; P. aeruginosa, 10 h cultivation at 37° C.) of the same substance?
**A.** 25 µg/mL

**Q.** What about the “MIC (μg/mL) S. marcescens” value ([5]; S. marcescens, 10 h cultivation at 37° C.) of the same substance?
**A.** 25 µg/mL

**Q.** And the “MIC (μg/mL) P. mirabilis” value ([6]; P. mirabilis, 10 h cultivation at 37° C.)?
**A.** 12.5 µg/mL

**Q.** And the “MIC (μg/mL) C. diversus” value ([7]; C. diversus, 10 h cultivation at 37° C.)?
**A.** 50 µg/mL

**Q.** And the “MIC (μg/mL) E. cloacae” value ([8]; E. cloacae, 10 h cultivation at 37° C.)?
**A.** 50 µg/mL

**Q.** What about the MIC [9] of the same substance?
**A.** 25 µg/mL

**Q.** What about the “MIC (μg/mL) A. hydrophila” value ([10]; A. hydrophila, 10 h cultivation at 37° C.) of the same substance?
**A.** 12.5 µg/mL

**Q.** What about the “MIC (μg/mL) M. catarrhalis” value ([11]; M. catarrhalis, 10 h cultivation at 37° C.) of the same substance?
**A.** 12.5 µg/mL
